Source: the NIST ThermoML archive (doi:10.1021/je100693c)

Experiments:
[1] = xn = mol fraction of the nth substance listed; conditions: 101 kPa, Liquid, Vibrating tube method
[2] = excess molar enthalpy (molar enthalpy of mixing); xn = mol fraction of the nth substance listed; conditions: 101 kPa, Liquid

OCC(F)(F)F [2,2,2-trifluoroethanol] + CCCCn1cc[n+](C)c1.F[B-](F)(F)F
Conditions	excess molar enthalpy [kcal/mol]	mass density [kg/m3]
[1], 283.15 K, x2 = 0	–	1408.2
[1], 283.15 K, x2 = 0.1032	–	1360.8
[1], 283.15 K, x2 = 0.2129	–	1322.2
[1], 283.15 K, x2 = 0.299	–	1299.8
[1], 283.15 K, x2 = 0.4022	–	1279.1
[1], 283.15 K, x2 = 0.5028	–	1262.9
[1], 283.15 K, x2 = 0.5808	–	1252.3
[1], 283.15 K, x2 = 0.6912	–	1239.6
[1], 283.15 K, x2 = 0.8062	–	1228.5
[1], 283.15 K, x2 = 0.8945	–	1221.2
[1], 293.15 K, x2 = 0	–	1391.1
[1], 293.15 K, x2 = 0.1032	–	1346.9
[1], 293.15 K, x2 = 0.2129	–	1310.1
[1], 293.15 K, x2 = 0.299	–	1288.8
[1], 293.15 K, x2 = 0.4022	–	1269
[1], 293.15 K, x2 = 0.5028	–	1253.4
[1], 293.15 K, x2 = 0.5808	–	1243.3
[1], 293.15 K, x2 = 0.6912	–	1231.2
[1], 293.15 K, x2 = 0.8062	–	1220.5
[1], 293.15 K, x2 = 0.8945	–	1213.3
[1], 303.15 K, x2 = 0	–	1373.8
[1], 303.15 K, x2 = 0.1032	–	1332.9
[1], 303.15 K, x2 = 0.2129	–	1298.1
[1], 303.15 K, x2 = 0.299	–	1277.9
[1], 303.15 K, x2 = 0.4022	–	1259.1
[1], 303.15 K, x2 = 0.5028	–	1244.3
[1], 303.15 K, x2 = 0.5808	–	1234.6
[1], 303.15 K, x2 = 0.6912	–	1223.1
[1], 303.15 K, x2 = 0.8062	–	1212.8
[1], 303.15 K, x2 = 0.8945	–	1205.8
[1], 313.15 K, x2 = 0	–	1356.1
[1], 313.15 K, x2 = 0.1032	–	1319
[1], 313.15 K, x2 = 0.2129	–	1286.1
[1], 313.15 K, x2 = 0.299	–	1267
[1], 313.15 K, x2 = 0.4022	–	1249.4
[1], 313.15 K, x2 = 0.5028	–	1235.2
[1], 313.15 K, x2 = 0.5808	–	1226
[1], 313.15 K, x2 = 0.6912	–	1215
[1], 313.15 K, x2 = 0.8062	–	1205.1
[1], 313.15 K, x2 = 0.8945	–	1198.3
[1], 323.15 K, x2 = 0	–	1338
[1], 323.15 K, x2 = 0.1032	–	1304.9
[1], 323.15 K, x2 = 0.2129	–	1274.3
[1], 323.15 K, x2 = 0.299	–	1256.4
[1], 323.15 K, x2 = 0.4022	–	1239.7
[1], 323.15 K, x2 = 0.5028	–	1226.4
[1], 323.15 K, x2 = 0.5808	–	1217.5
[1], 323.15 K, x2 = 0.6912	–	1207
[1], 323.15 K, x2 = 0.8062	–	1197.6
[1], 323.15 K, x2 = 0.8945	–	1190.9
[1], 333.15 K, x2 = 0	–	1319.1
[1], 333.15 K, x2 = 0.1032	–	1290.6
[1], 333.15 K, x2 = 0.2129	–	1262.4
[1], 333.15 K, x2 = 0.299	–	1245.8
[1], 333.15 K, x2 = 0.4022	–	1230
[1], 333.15 K, x2 = 0.5028	–	1217.4
[1], 333.15 K, x2 = 0.5808	–	1209
[1], 333.15 K, x2 = 0.6912	–	1199.1
[1], 333.15 K, x2 = 0.8062	–	1190.1
[1], 333.15 K, x2 = 0.8945	–	1183.6
[2], 298.15 K, x2 = 0.0878	0.174	–
[2], 298.15 K, x2 = 0.1614	0.279	–
[2], 298.15 K, x2 = 0.2042	0.305	–
[2], 298.15 K, x2 = 0.2779	0.318	–
[2], 298.15 K, x2 = 0.3392	0.302	–
[2], 298.15 K, x2 = 0.3908	0.289	–
[2], 298.15 K, x2 = 0.435	0.273	–
[2], 298.15 K, x2 = 0.5065	0.238	–
[2], 298.15 K, x2 = 0.6581	0.162	–
[2], 298.15 K, x2 = 0.6919	0.145	–
[2], 298.15 K, x2 = 0.7549	0.119	–
[2], 298.15 K, x2 = 0.8089	0.0909	–
[2], 298.15 K, x2 = 0.9059	0.0403	–
[2], 323.15 K, x2 = 0.0459	0.0433	–
[2], 323.15 K, x2 = 0.1137	0.113	–
[2], 323.15 K, x2 = 0.2042	0.168	–
[2], 323.15 K, x2 = 0.2779	0.179	–
[2], 323.15 K, x2 = 0.3461	0.173	–
[2], 323.15 K, x2 = 0.435	0.154	–
[2], 323.15 K, x2 = 0.5359	0.128	–
[2], 323.15 K, x2 = 0.6062	0.108	–
[2], 323.15 K, x2 = 0.6978	0.079	–
[2], 323.15 K, x2 = 0.822	0.0433	–
[2], 323.15 K, x2 = 0.885	0.0286	–
